# In PMC9014845 (Clinical cancer research : an official journal of the …, 2019):
# Legend:
# [1] = test system: advanced solid tumors harboring FGFR1–3 gene alterations; assay: Tumor response according to RECIST 1.1
# [2] = test system: FGFRs 1–3; settings: in vitro, ATP-competitive; cited from earlier work
# [3] = test system: tumor models with FGFR alterations; settings: several tumor models with FGFR alterations in vivo; cited from earlier work
# [4] = test system: FGFR; assay: Blood PD biomarkers; assay type: in vivo, human
substance,measurement,setting,value
Debio 1347,Disease stabilization among patients with confirmed FGFR fusions,"[1]; 10 patients, doses ≥60 mg/day",5 patients
same,PRs among patients with confirmed FGFR fusions,"[1]; 10 patients, doses ≥60 mg/day",3 patients
same,Patients with stable disease as best objective response,[1]; 57 evaluable,16 patients
same,Patients with stable disease showing reduced target lesion size (tumor size regressions of ≤30%),[1]; 57 evaluable,10 patients
same,Response per independent central radiological review,"[1]; one patient with cholangiocarcinoma, 110 mg, changed from partial",confirmed complete response
same,Disease control rate (DCR),[1]; overall,39%
same,Disease control rate (DCR),"[1]; patients with confirmed FGFR fusions, ≥60 mg/day",80%
same,Median treatment duration in patients with disease control,[1]; range 24–47,34 weeks
same,Inhibitory concentration for FGFRs 1–3,[2],low nanomolar
same,Efficacy in tumor models,[3],effective
same,Hyperphosphatemia versus plasma exposure,[4]; maximum serum phosphate in cycle 1 versus plasma trough levels,correlated with Debio 1347 exposure
same,Dose at which serum phosphate confirmed target engagement,[4]; oral once daily,≥ 60 mg/day
same,Ctrough at which serum phosphate increases of 50% from baseline were achieved,"[4]; seen in about half of patients at 60 mg/day, majority at ≥80 mg/day",about 400 ng/mL
same,Plasma FGF23 change,"[4]; steady-state, without clear relationship to the dose",overall increase
